# Earlier results, collected in patent US8227510B2, “Combine use of pterostilbene and quercetin for the production of cancer treatment medicaments” (Universitat de Valencia, priority 2004, dated 2012).
# Tested on: B16M-F10 cells / HSE
# Settings: as described previously (ref. 14); cited from earlier work
smiles,measurement,value
"Oc1ccc(C=Cc2cc(O)cc(O)c2)cc1 [RESV, resveratrol, reference compound]",inhibition of adhesion of tumor cells to the endothelium,~47%
